Where a name gives a salt, the structure may show the parent alone.
What follows are compounds tested against EZH2 within the PRC2 complex (Homo sapiens (Human), UniProt Q15910) (assay: EZH2 methyltransferase SPA, biotinylated histone H3K27 peptide substrate (Assay Protocol 2)). Settings: 3H-SAM, ≦10 nM approaches limit of detection.
Sequence of EZH2 within the PRC2 complex (Q15910 whole entry): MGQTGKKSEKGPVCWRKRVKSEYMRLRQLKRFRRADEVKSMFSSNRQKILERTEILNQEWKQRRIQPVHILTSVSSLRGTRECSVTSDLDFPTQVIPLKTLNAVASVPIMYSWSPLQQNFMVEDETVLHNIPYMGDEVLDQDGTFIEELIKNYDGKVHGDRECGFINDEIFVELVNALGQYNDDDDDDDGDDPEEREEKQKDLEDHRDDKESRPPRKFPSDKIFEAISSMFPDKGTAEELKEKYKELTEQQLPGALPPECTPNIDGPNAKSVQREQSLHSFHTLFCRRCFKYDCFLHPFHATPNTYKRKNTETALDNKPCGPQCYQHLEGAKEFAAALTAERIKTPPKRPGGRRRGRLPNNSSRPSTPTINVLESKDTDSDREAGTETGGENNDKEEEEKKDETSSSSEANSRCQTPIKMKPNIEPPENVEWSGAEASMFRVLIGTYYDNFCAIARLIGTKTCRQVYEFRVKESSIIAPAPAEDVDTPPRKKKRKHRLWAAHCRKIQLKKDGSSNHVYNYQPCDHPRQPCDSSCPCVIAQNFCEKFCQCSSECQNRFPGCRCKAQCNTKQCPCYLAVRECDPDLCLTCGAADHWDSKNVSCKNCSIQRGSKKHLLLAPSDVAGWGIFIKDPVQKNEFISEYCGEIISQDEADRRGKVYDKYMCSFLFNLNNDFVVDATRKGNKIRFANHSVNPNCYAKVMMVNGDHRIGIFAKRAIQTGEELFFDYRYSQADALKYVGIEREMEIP
Sequence of EZH2 within the PRC2 complex (O75530 whole entry partner): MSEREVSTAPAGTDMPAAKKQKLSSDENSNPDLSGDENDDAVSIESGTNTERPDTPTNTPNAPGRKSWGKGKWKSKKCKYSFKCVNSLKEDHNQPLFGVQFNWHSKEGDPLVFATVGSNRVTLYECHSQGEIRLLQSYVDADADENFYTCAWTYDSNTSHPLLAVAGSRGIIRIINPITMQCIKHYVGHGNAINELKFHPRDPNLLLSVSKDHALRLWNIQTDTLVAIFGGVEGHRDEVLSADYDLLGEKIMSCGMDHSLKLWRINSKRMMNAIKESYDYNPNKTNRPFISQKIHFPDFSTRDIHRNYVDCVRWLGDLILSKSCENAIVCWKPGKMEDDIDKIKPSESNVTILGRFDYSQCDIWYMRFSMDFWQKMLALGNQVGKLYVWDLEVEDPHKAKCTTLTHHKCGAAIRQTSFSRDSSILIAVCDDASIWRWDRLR
Sequence of EZH2 within the PRC2 complex (Q15022 whole entry partner): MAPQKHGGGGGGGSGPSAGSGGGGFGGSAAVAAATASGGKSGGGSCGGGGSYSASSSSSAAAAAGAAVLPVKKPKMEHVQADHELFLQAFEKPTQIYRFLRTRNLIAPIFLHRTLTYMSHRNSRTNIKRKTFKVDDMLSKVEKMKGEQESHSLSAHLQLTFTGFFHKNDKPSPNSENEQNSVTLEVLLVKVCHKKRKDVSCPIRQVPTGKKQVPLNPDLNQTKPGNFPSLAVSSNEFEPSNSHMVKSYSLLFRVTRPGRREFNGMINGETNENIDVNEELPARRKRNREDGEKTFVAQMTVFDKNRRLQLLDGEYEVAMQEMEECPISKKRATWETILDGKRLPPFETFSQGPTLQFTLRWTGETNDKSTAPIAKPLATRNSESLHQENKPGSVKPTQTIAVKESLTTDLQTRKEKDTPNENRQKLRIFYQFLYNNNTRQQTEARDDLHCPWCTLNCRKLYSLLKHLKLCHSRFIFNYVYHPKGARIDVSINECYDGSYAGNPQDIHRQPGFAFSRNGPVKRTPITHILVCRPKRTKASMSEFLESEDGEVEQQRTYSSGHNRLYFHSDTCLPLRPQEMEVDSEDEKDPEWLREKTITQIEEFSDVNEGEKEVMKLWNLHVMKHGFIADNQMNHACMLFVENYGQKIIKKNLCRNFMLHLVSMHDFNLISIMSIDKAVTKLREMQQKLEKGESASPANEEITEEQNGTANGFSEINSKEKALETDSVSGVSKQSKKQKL
Sequence of EZH2 within the PRC2 complex (Q09028 whole entry partner): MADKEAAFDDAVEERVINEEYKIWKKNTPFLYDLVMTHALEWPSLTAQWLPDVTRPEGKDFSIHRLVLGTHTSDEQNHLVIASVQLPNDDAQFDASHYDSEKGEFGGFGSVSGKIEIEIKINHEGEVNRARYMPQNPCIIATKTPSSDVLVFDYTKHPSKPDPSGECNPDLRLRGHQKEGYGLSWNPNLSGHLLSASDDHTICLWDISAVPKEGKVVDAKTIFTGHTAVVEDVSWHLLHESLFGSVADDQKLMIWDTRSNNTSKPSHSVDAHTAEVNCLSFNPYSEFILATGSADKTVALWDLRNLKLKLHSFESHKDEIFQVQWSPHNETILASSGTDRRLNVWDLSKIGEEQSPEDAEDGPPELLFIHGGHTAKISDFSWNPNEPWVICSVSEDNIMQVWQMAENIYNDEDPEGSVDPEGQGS
Sequence of EZH2 within the PRC2 complex (Q6ZN18 whole entry partner): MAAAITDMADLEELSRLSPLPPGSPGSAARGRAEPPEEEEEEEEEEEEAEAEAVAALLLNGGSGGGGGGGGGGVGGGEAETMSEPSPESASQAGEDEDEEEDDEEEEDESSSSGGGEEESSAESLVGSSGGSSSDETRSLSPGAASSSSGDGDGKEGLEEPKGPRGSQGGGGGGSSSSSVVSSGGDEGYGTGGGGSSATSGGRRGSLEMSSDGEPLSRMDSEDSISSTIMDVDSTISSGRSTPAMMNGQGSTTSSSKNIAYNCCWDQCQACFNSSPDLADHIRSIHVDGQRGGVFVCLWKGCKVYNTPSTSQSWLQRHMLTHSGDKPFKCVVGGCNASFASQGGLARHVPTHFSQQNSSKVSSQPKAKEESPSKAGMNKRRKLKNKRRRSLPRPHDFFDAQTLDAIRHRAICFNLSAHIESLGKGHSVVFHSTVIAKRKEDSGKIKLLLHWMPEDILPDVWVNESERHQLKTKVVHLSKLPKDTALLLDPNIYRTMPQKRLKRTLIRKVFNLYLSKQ
Format: biochemical
Experimental: Compounds contained herein were evaluated for their ability to inhibit the methyltransferase activity of EZH2 within the PRC2 complex. Human PRC2 complex was prepared by co-expressing each of the 5 member proteins (FLAG-EZH2, EED, SUZ12, RbAp48, AEBP2) in Sf9 cells followed by co-purification. Enzyme activity was measured in a scintillation proximity assay (SPA) where a tritiated methyl group is transferred from 3H-SAM to a lysine residue on a biotinylated, unmethylated peptide substrate derived from histone H3. The peptides were captured on streptavidin-coated SPA beads and the resulting signal was read on a ViewLux plate reader.
Part A. Compound Preparation
• 4. Prepare 10 mM stock of compounds from solid in 100% DMSO. • 5. Set up an 11-point serial dilution (1:4 dilution, top concentration 10 mM) in 100% DMSO for each test compound in a 384 well plate leaving columns 6 and 18 for DMSO controls. • 6. Dispense 10 nL of compound from the dilution plate into reaction plates (Corning, 384-well polystyrene NBS, Cat#3673). Part B. Reagent Preparation Prepare the following solutions: • 7. 1× Base Buffer, 50 mM Tris-HCl, pH 8, 2 mM MgCl2: Per 1 L of base buffer, combine 1 M Tris-HCl, pH 8 (50 mL), 1 M MgCl2 (2 mL), and distilled water (948 mL). • 8. 1× Assay Buffer: Per 10 mL of 1× Assay Buffer, combine 1× Base Buffer (9.96 mL), 1 M DTT (40 uL), and 10% Tween-20 (1 uL) to provide a final concentration of 50 mM Tris-HCl, pH 8, 2 mM MgCl2, 4 mM DTT, 0.001% Tween-20. • 9. 2× Enzyme Solution: Per 10 mL of 2× Enzyme Solution, combine 1× Assay Buffer (9.99 mL) and 3.24 uM EZH2 5 member complex (6.17 uL) to provide a final enzyme concentration of 1 nM. • 10. SPA Bead Solution: Per 1 mL of SPA Bead Solution, combine Streptavidin coated SPA beads (PerkinElmer, Cat#RPNQ0261, 40 mg) and 1× Assay Buffer (1 mL) to provide a working concentration of 40 mg/mL. • 11. 2× Substrate Solution: Per 10 mL of 2× Substrate Solution, combine 40 mg/mL SPA Bead Solution (375 uL), 1 mM biotinylated histone H3K27 peptide (200 uL), 12.5 uM 3H-SAM (240 uL; 1 mCi/mL), 1 mM cold SAM (57 uL), and 1× Assay Buffer (9.13 mL) to provide a final concentration of 0.75 mg/mL SPA Bead Solution, 10 uM biotinylated histone H3K27 peptide, 0.15 uM 3H-SAM (˜12 uCi/mL 3H-SAM), and 2.85 uM cold SAM. • 12. 2.67× Quench Solution: Per 10 mL of 2.67× Quench Solution, combine 1× Assay Buffer (9.73 mL) and 10 mM cold SAM (267 uL) to provide a final concentration of 100 uM cold SAM. Part C. Assay Reaction in 384-well Grenier Bio-One Plates Compound Addition • 3. Stamp 10 nL/well of 1000× Compound to test wells (as noted above). • 4. Stamp 10 nL/well of 100% DMSO to columns 6 & 18 (high and low controls, respectively). Assay • 10. Dispense 5 uL/well of 1× Assay Buffer to column 18 (low control reactions). • 11. Dispense 5 uL/well of 2× Substrate Solution to columns 1-24 (note: substrate solution should be mixed to ensure homogeneous bead suspension before dispensing into matrix reservoir). • 12. Dispense 5 uL/well of 2× Enzyme Solution to columns 1-17, 19-24. • 13. Incubate the reaction for 60 min at room temperature. Quench • 5. Dispense 6 uL/well of the 2.67× Quench Solution to columns 1-24. • 6. Seal assay plates and spin for ˜1 min at 500 rpm. • 7. Dark adapt plates in the ViewLux instrument for 15-60 min. Read plates • 2. Read the assay plates on the Viewlux Plate Reader utilizing the 613 nm emission filter or clear filter (300 s exposure). Reagent addition can be done manually or with automated liquid handler. Results
Percent inhibition was calculated relative to the DMSO control for each compound concentration and the resulting values were fit using standard IC50 fitting parameters within the ABASE data fitting software package.
In the case of `CCC(CCCN1CCN(C)CC1)c1scc(C(=O)NCc2c(C)cc(C)[nH]c2=O)c1C` (centres unmarked) [Example 73, N-((4,6-Dimethyl-2-oxo-1,2-dihydropyridin-3-yl)methyl)-4-methyl-5-(6-(4-methylpiperazin-1-yl)hexan-3-yl)thiophene-3-carboxamide], the IC50 is reported as 126 nM. For `C/C=C(/c1scc(C(=O)NCc2c(C)cc(C)[nH]c2=O)c1C)C1CCNCC1` [Example 33, (E)-N-((4,6-Dimethyl-2-oxo-1,2-dihydropyridin-3-yl)methyl)-4-methyl-5-(1-(piperidin-4-yl)prop-1-en-1-yl)thiophene-3-carboxamide], the IC50 was no more than 10 nM. `CCN(c1sc(C2CCNC2)c(C(=O)NCc2c(C)cc(C)[nH]c2=O)c1C)C1CCOCC1` (centres unmarked) [Example 58, N-((4,6-Dimethyl-2-oxo-1,2-dihydropyridin-3-yl)methyl)-5-(ethyl(tetrahydro-2H-pyran-4-yl)amino)-4-methyl-2-(pyrrolidin-3-yl)thiophene-3-carboxamide hydrochloride] was tested, and the IC50 was 794 nM. Compound `CCN(c1sc(C2CCN(C(=O)OC(C)(C)C)C2)c(C(=O)NCc2c(C)cc(C)[nH]c2=O)c1C)C1CCOCC1` (centres unmarked) [Example 57, tert-Butyl 3-(3-(((4,6-dimethyl-2-oxo-1,2-dihydropyridin-3-yl)methyl)carbamoyl)-5-(ethyl(tetrahydro-2H-pyran-4-yl)amino)-4-methylthiophen-2-yl)pyrrolidine-1-carboxylate] has an IC50 of 200 nM. In the case of `CCN(c1sc(C#N)c(C(=O)NCc2c(C)cc(C)[nH]c2=O)c1C)[C@H]1CC[C@H](N(C)C)CC1` [Example 51, 2-Cyano-N-((4,6-dimethyl-2-oxo-1,2-dihydropyridin-3-yl)methyl)-5-(((trans)-4-(dimethylamino)cyclohexyl)(ethyl)amino)-4-methylthiophene-3-carboxamide], the IC50 is reported as 25 nM. `Cc1cc(C)c(CNC(=O)c2csc(C(O)[C@H]3CC[C@H](N)CC3)c2C)c(=O)[nH]1` (stereo partly drawn) [Example 37, 5-(((trans)-4-Aminocyclohexyl)(hydroxy)methyl)-N-((4,6-dimethyl-2-oxo-1,2-dihydropyridin-3-yl)methyl)-4-methylthiophene-3-carboxamide] gave an IC50 of 501 nM. `Cc1cc(C)c(CNC(=O)c2csc(N3CCCCC3C3CCNCC3)c2C)c(=O)[nH]1` (centres unmarked) [Example 69, 5-([2,4′-Bipiperidin]-1-yl)-N-((4,6-dimethyl-2-oxo-1,2-dihydropyridin-3-yl)methyl)-4-methylthiophene-3-carboxamide hydrochloride] was tested, and the IC50 was 501 nM. `CCN(c1sc(C)c(C(=O)NCc2c(C)cc(C)[nH]c2=O)c1C)C1CCOCC1` [Example 54, N-((4,6-Dimethyl-2-oxo-1,2-dihydropyridin-3-yl)methyl)-5-(ethyl(tetrahydro-2H-pyran-4-yl)amino)-2,4-dimethylthiophene-3-carboxamide hydrochloride] showed an IC50 of 32 nM. In the case of `CC[C@@H](c1scc(C(=O)NCc2c(C)cc(C)[nH]c2=O)c1C)N1CCC(N(C)C)CC1` [Example 41, (S)-(−)-N-((4,6-Dimethyl-2-oxo-1,2-dihydropyridin-3-yl)methyl)-5-(1-(4-(dimethylamino)piperidin-1-yl)propyl)-4-methylthiophene-3-carboxamide], the IC50 is reported as 20 nM. In the case of `CCC(c1scc(C(=O)NCc2c(C)cc(C)[nH]c2=O)c1C)C1CCN(C(=O)OC(C)(C)C)CC1` (centres unmarked) [Example 39, tert-Butyl 4-(1-(4-(((4,6-dimethyl-2-oxo-1,2-dihydropyridin-3-yl)methyl)carbamoyl)-3-methylthiophen-2-yl)propyl)piperidine-1-carboxylate], the IC50 is reported as 50 nM. Compound `C/C=C(/c1scc(C(=O)NCc2c(C)cc(C)[nH]c2=O)c1C)[C@H]1CC[C@H](NC(=O)OC(C)(C)C)CC1` [Example 34, tert-Butyl ((trans)-4-((E)-1-(4-(((4,6-dimethyl-2-oxo-1,2-dihydropyridin-3-yl)methyl)carbamoyl)-3-methylthiophen-2-yl)prop-1-en-1-yl)cyclohexyl)carbamate] has an IC50 of 100 nM. `Cc1cc(C)c(CNC(=O)c2csc(C(O)[C@H]3CC[C@H](N(C)C)CC3)c2C)c(=O)[nH]1` (stereo partly drawn) [Example 38, N-((4,6-dimethyl-2-oxo-1,2-dihydropyridin-3-yl)methyl)-5-(((trans)-4-(dimethylamino)cyclohexyl)(hydroxy)methyl)-4-methylthiophene-3-carboxamide] gave an IC50 of 158 nM. `CC[C@H](c1scc(C(=O)NCc2c(C)cc(C)[nH]c2=O)c1C)N1CCC(N(C)C)CC1` [Example 42, (R)-(+)-N-((4,6-dimethyl-2-oxo-1,2-dihydropyridin-3-yl)methyl)-5-(1-(4-(dimethylamino)piperidin-1-yl)propyl)-4-methylthiophene-3-carboxamide] showed an IC50 of 316 nM. `CCC(c1scc(C(=O)NCc2c(C)cc(C)[nH]c2=O)c1C)[C@H]1CC[C@H](N(C)C)CC1` (single isomer, unassigned; (+)) [Example 45, (+)-N-((4,6-Dimethyl-2-oxo-1,2-dihydropyridin-3-yl)methyl)-5-(1-((trans)-4-(dimethylamino)cyclohexyl)propyl)-4-methylthiophene-3-carboxamide] was tested, and the IC50 was no more than 10 nM. Work on `CCN(C)[C@H]1CC[C@H](N(CC)c2scc(C(=O)NCc3c(C)cc(C)[nH]c3=O)c2C)CC1` [Example 64, N-((4,6-dimethyl-2-oxo-1,2-dihydropyridin-3-yl)methyl)-5-(ethyl((trans)-4-(ethyl(methyl)amino)cyclohexyl)amino)-4-methylthiophene-3-carboxamide] yielded an IC50 of 16 nM. Compound `CCC(c1scc(C(=O)NCc2c(C)cc(C)[nH]c2=O)c1C)[C@H]1CC[C@@H](N(C)C)CC1` (single isomer, unassigned; (+)) [Example 46, (+)-N-((4,6-Dimethyl-2-oxo-1,2-dihydropyridin-3-yl)methyl)-5-(1-((cis)-4-(dimethylamino)cyclohexyl)propyl)-4-methylthiophene-3-carboxamide] has an IC50 of 316 nM. Work on `CCN(c1sc(Br)c(C(=O)NCc2c(C)cc(C)[nH]c2=O)c1C)[C@H]1CC[C@H](N(C)C)CC1` [Example 50, 2-Bromo-N-((4,6-dimethyl-2-oxo-1,2-dihydropyridin-3-yl)methyl)-5-(((trans)-4-(dimethylamino)cyclohexyl)(ethyl)amino)-4-methylthiophene-3-carboxamide hydrochloride] yielded an IC50 of 20 nM. Work on `C/C=C(/c1scc(C(=O)NCc2c(C)cc(C)[nH]c2=O)c1C)[C@H]1CC[C@H](N)CC1` [Example 35, 5-((E)-1-((trans)-4-Aminocyclohexyl)prop-1-en-1-yl)-N-((4,6-dimethyl-2-oxo-1,2-dihydropyridin-3-yl)methyl)-4-methylthiophene-3-carboxamide] yielded an IC50 of 13 nM. Compound `Cc1cc(C)c(CNC(=O)c2csc(N3CCCC3C3CCNCC3)c2C)c(=O)[nH]1` (centres unmarked) [Example 68, N-((4,6-dimethyl-2-oxo-1,2-dihydropyridin-3-yl)methyl)-4-methyl-5-(2-(piperidin-4-yl)pyrrolidin-1-yl)thiophene-3-carboxamide hydrochloride] has an IC50 of 79 nM. `C/C=C(/CCCN1CCN(C)CC1)c1scc(C(=O)NCc2c(C)cc(C)[nH]c2=O)c1C` [Example 72, (Z)—N-((4,6-Dimethyl-2-oxo-1,2-dihydropyridin-3-yl)methyl)-4-methyl-5-(6-(4-methylpiperazin-1-yl)hex-2-en-3-yl)thiophene-3-carboxamide] was tested, and the IC50 was 251 nM.

From patent US9505745B2, “Enhancer of zeste homolog 2 inhibitors” (GlaxoSmithKline Intellectual Property (No.2) Limited, priority 2013, dated 2016)
